Assay results taken from US20260364072A1, “METHODS FOR PROMOTING EXPANSION OF HUMAN CD34+ CELLS IN VIVO AND FOR PROMOTING NEURAL REGENERATION” (THE REGENTS OF THE UNIVERSITY OF CALIFORNIA, priority 2023, published 2026).

Columns and labels:
[1] = NHP single-dose toxicokinetic study; format: in vivo, cynomolgus monkeys
Method: Pre-IND PD and toxicokinetic (TK) studies (FIG. 4D) were enabled by scalable Rebecsinib synthesis^34 and development of an optimized formulation for in vivo biodistribution (5% w/v EtOH, 5% w/v Kolliphor HS15 in 0.9% Sodium Chloride). In PK studies, Rebecsinib was detectable in rat, rabbit, and non-human primate (NHP) plasma following IV bolus administration. In rat TK studies, Rebecsinib was quantifiable up to 1-hour post-dose at 1 mg/kg and up to 4 hours post-dose at 3, 5, and 8 mg/kg (FIG. 4E). […] Rebecsinib T1/2 values were 0.342, 0.447, 0.313, and 0.530 hours at 1, 3, 5, and 8 mg/kg, respectively. […] Following 3, 10, and 20 mg/kg boluses, Rebecsinib was quantifiable in plasma 1 hour post-dose and could be detected up to 8 hours post-dosing with 40 mg/kg (FIG. 4F). […] Following 3, 10, 15, and 20 mg/kg of Rebecsinib, quantifiable plasma concentrations of Rebecsinib were observed through 8 hrs post-dose (FIG. 4G).
(FIG. 29D) Schematic diagram outlining multispecies toxicokinetic (TK) and pharmacodynamic studies in mammalian species treated in vivo with a single dose of Rebecsinib. Toxicokinetic analyses were performed in rats (n=6 per sex, per group), rabbits (n=2 per sex, per group), and non-human primates (NHPs, n=1 per sex, per group) and pharmacodynamic splice isoform quantification studies were performed in peripheral blood mononuclear cells (PBMCs) from NHP.
(FIG. 29G, FIG. 29H) For in vivo TK and complementary pharmacodynamic studies, NHPs were given a single injection of Rebecsinib at 3-20 mg/kg, or vehicle control, and blood samples were drawn at regular intervals to determine plasma concentrations (FIG. 29G) of the compound along with splice isoform biomarker assays to quantify MCL1 exon skipping in PBMCs isolated from treated animals (FIG. 29H, n=2 animals per group).
Single-dose TK studies were performed in Sprague Dawley rats (Charles River Labs, South San Francisco, CA), New Zealand white rabbits (BASi/Inotiv, West Lafayette, IN), and cynomolgus monkeys (BASi/Inotiv). Rat and rabbit studies included toxicology analyses, quantification of plasma levels of Rebecsinib, and necropsies to evaluate organ integrity after treatment. For NHP studies, health and ophthalmological evaluations were performed before and after dosing with Rebecsinib, and blood samples were collected for quantification of plasma levels of Rebecsinib and biomarker studies in PBMCs from treated and control animals. All monkeys were returned to the animal colony after the end of the observation period. Toxicokinetic values including mean plasma concentrations and t1/2 values were calculated according to CRO-approved protocols (Charles River and BASi).

[2] = test system: ADAR1, CD44-012, PTK2B-202, MCL1 transcripts; experiment: Transcripts in human CD34+ cells from treated engrafted sAML mice (qRT-PCR, RNA-seq); format: in vivo
Method: FIG. […]
For RNA editing analyses of whole transcriptome sequencing data, previous datasets were utilized from CD34^+ cells isolated from the spleens of sAML50261-engrafted mice treated once weekly with Rebecsinib in a dose-response assay (5 or 10 mg/kg),^14 along with CD34^+ cells harvested from mice that were serially transplanted with CD34+ cells from sAML50261-engrafted mice that had been treated twice weekly with Rebecsinib at 10 mg/kg (no further treatment was delivered to serial transplant recipients). Due to limiting number of cells remaining after treatment, cells were pooled from n=4 to 5 mice per condition for sequencing. RNA editing analysis was performed as previously described.^5
For quantitative analysis of splice isoform expression, RNA editing rates, and whole gene expression by qRT-PCR, cells or tissue fragments were harvested in RNA lysis buffer and total RNA was extracted using RNeasy mini or micro extraction kits (QIAGEN, Germantown, MD) following the manufacturer's protocol including a DNase incubation step to digest any trace genomic DNA present. Levels of ADAR1 variants and LSC-specific transcripts were quantified by qRT-PCR as previously described.^14 RNA-editing site-specific qRT-PCR (RESSqPCR) was performed for variants in AZIN1 transcripts.^53 Additional species-specific primers were also designed to quantify intron retention rates in cells treated with Rebecsinib as a biomarker of response to RNA splicing modulation. Specifically, for the two-step SYBR-green based assays, as previously described,^7,14,53 100-1000 ng of RNA were subjected to cDNA synthesis using the SUPERSCRIPT III™ (ThermoFisher Scientific) kit followed by qRT-PCR using SYBR GreenER (ThermoFisher Scientific) master mix according to the manufacturer's recommended procedures. qRT-PCR was performed using SYBR GREENER SUPER MIX™ (Life Technologies) on BioRad iQ5™, C1000 TOUCH™, or BioRad CFX384™ instruments. Human splice isoform-specific, RNA editing site-specific qPCR (RESSqPCR)^53. Primer sets that have not been previously published were designed and tested for efficiency followed by analyses in samples exposed to Rebecsinib, with species-specific HPRT primers used as controls. Samples with Ct<35 for the species-specific reference gene, HPRT, were included in analyses. Relative mRNA expression values were calculated using the 2^−ΔCT method, with normalization to untreated or vehicle-treated controls.^54
In humanized mouse models, sAML cells (CD34^+) from two unique […] patient samples that were splicing factor mutated or unmutated were utilized, including sAML50261 and sAML2008-5.^14 For in vivo efficacy and therapeutic index studies, sAML CD34^+ cells, or normal human cord blood-derived or aged bone marrow-derived HSPCs (CD34^+), were transplanted (50,000-200,000 cells per mouse) intrahepatically into neonatal Rag2^−/−γc^−/− mice, or intravenously into adult NSG-SGM3 mice (Jackson Laboratories, Bar Harbor, ME). A subset of experiments was performed with normal aged bone marrow cells that were transduced with the lentiviral ADAR1 nanoluc-GFP reporter vector prior to transplant. For transplantation into adult mice, animals were irradiated with ^137Cs at a dose of 150 cGy 24 hr before IV transplantation. After engraftment levels reached >1% human CD45^+ hematopoietic cells in the peripheral blood, animals were distributed among treatment groups for treatment with Rebecsinib or vehicle control essentially as previously described, with an increased dosing regimen of twice weekly (versus once weekly in prior studies)^14 and an optimized in vivo formulation (2% w/w EtOH, 5% w/v KOLLIPHOR HS™ 15 in 0.9% saline). […]

[3] = test system: ADAR1p150 splice isoform; leukemia stem cells; settings: cited from earlier work
[4] = CD34+ cells, sAML50261 engrafted mice, vs vehicle

## CC[C@H](OC)[C@@H](C)[C@H]1O[C@@H]1[C@@H](O)[C@H](C)/C=C/C=C(\C)[C@H]1OC(=O)C[C@H](O)CC[C@@](C)(O)[C@@H](OC(C)=O)/C=C/[C@@H]1C [Rebecsinib]
[1]
  tolerability: favorable tolerability
[1]; 20 mg/kg, resolved within 24 hours with no treatment and no sequelae
  diarrhea: one female NHP in the 20 mg/kg treatment group developed diarrhea
[1]; IV bolus, 3, 10, 15, and 20 mg/kg
  quantifiable plasma concentrations through time post-dose: up to 8 hrs
[1]; IV bolus, all dose levels
  peak (Cmax) levels, male vs female: comparable between male and females
  total (AUClast) levels, male vs female: comparable between male and females
[1]; cynomolgus monkey, plasma, IV bolus, read-out: half-life (t1/2)
  half-life: 37.2 to 66 min
[2]; CD34+ cells from bone marrows of treated mice
  MCL1-S isoform expression in human CD34+ cells: increase in the pro-apoptotic MCL1-S isoform expression
[2]; [4]
  CD44-012 splice isoform: significant reduction
  PTK2B-202 splice isoform: significant reduction
  total ADAR1 RNA expression by qRT-PCR: significant reduction in total ADAR1 RNA expression
[2]; mice treated with 5 or 10 mg/kg, RNA-seq
  MCL1 splice isoform switching: splice isoform switching of MCL1-L to MCL1-S
[2]; sAML50261 engrafted mice, Rebecsinib-treated samples
  ADAR1 transcript splicing (RNA-seq): unique retained intron regions and alternative splice site usage
[3]
  activation of the interferon-inducible ADAR1p150 splice isoform: inhibit activation of the interferon-inducible ADAR1p150 splice isoform
  malignant splice isoform switching: reverse malignant splice isoform switching
[3]; in vitro and in preclinical patient-derived AML mouse models
  leukemia stem cell (LSC) maintenance: significantly reduce leukemia stem cell (LSC) maintenance
